For one data set, the target named is T1, 70 kDa PKC-λ/ι (Mus musculus, UniProt Q62074).
T1 construct: insulin-sensitive 70 kDa PKC-λ/ι in brains of Het-MλKO mice; from tissue; host or cells: mouse brain homogenate
T1 sequence (Q62074 1-595): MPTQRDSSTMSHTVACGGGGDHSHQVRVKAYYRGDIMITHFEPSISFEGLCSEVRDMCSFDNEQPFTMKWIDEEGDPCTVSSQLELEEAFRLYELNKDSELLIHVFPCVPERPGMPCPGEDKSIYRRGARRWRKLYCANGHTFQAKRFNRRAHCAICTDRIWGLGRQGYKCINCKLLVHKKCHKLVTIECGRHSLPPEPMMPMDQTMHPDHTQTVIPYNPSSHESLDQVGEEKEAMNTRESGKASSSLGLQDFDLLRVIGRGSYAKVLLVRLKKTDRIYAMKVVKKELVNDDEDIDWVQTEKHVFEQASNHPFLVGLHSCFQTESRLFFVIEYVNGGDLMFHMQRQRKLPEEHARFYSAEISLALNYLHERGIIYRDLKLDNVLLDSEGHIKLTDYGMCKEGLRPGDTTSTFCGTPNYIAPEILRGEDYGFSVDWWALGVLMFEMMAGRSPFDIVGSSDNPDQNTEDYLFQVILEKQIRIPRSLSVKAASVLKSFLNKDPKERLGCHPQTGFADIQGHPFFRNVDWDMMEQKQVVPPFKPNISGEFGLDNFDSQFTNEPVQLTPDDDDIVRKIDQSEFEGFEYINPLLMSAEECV
Description: brain aPKC (PKC-λ/ι) phosphorylation/activity in mice. It is filed as in vivo. An excerpt: (§1) Mouse Studies. Brain samples were obtained from normal and insulin-resistant mice and monkeys used previously, and includes mice originally used in studies of insulin signaling and resistance in liver: (a) 4-6 month old C57Bl/6 mice used in studies of high-fat-feeding [USF Vivarium] [6]; 4-6 month-old male C57Bl/6 ob/ob and lean ob+ mice (Jackson Labs, Bar Harbor, Maine); and (c) 10-12 month-old C57Bl/6 Het-MλKO mice [USF Vivarium] [8]. […] Where indicated normal mice were given a single SC injection of saline or saline containing 1.5 mg/kg ICAPP to follow time-related alterations in brain signaling factors. Where indicated, mice were treated intraperitoneally (IP) with insulin (1 U/kg body weight) or vehicle 15-min before euthanization by administration of Xylazine/Ketamine, followed by whole body perfusion with phosphate-buffered saline and rapid removal of brain and other tissues.
(§2) Tissue Preparations. As described, mouse brains were hemisected sagittally, and one-half was frozen in liquid N2, stored at −80° C., and samples thereof were homogenized in buffer containing 0.25M sucrose, 20 mM Tris/HCl (pH, 7.5), 2 mmol/l EGTA, 2 mM EDTA, 1 mM phenlysulfonoylfluoride (PMSF), 20 μg/ml leupeptin, 10 μg/ml aprotinin, 2 mM Na4P2O7, 2 mM Na3VO4, 2 mM NaF, and 1 μM microcystin, and then supplemented with 1% TritonX-100, 0.6% Nonidet and 150 mM NaCl.
(§3) Western Analyses. As described, Western analyses were conducted with rabbit antisera or mouse monoclonal antibodies (mMab), using: anti-aPKC (Santa Cruz Biotechnologies, Santa Cruz, CA); anti-phospho-threonine-560/555-PKC-ζ/λ/ι (Invitrogen, Carlsbad, CA); anti-p-serine-256-FoxO1 and anti-FoxO1 (Abnova, Walnut, CA); anti-Akt (mMab), anti-phospho-serine-473-Akt, anti-phospho-serine-9-GSK3P anti-GSK313, anti-phospho-serine-253-FoxO3a, anti-FoxO3a, anti-phospho-serine-256-FoxO1, anti-phospho-serine-193-FoxO4; anti-FoxO1, anti-phospho-serine-2448-mTOR, anti-mTOR, anti-β-amyloid (anti-5-10 kDa-Aβ1-40/42) and anti-amyloid precursor protein (anti-120 kDa-APP) (Cell Signaling Technologies, Danvers, MA); and anti-phospho-serine-202-tau, anti-phospho-threonine-231-tau (Gene Tex, Irvine, CA). Samples from experimental groups were compared on the same blots, and routinely checked with loading controls. Note that: insulin-sensitive 70 kDa aPKC is largely PKC-ζ in mouse brain and orthologous PKC-ι (98% aa homology) in monkey and other primate brains; brain PKC-ζ exists largely as a 50 kDa moiety that, lacking a regulatory domain, is constitutively-active and unresponsive to insulin.
(§4) Where indicated, mice were randomly treated with insulin (1 unit/kg/bw i.p.) 15 min before being euthanized by administration of xylazine/ketamine, followed by whole-body perfusion with PBS and rapid removal of brain and other tissues.

The target of the next data set is T2, recombinant PKC-ι (Homo sapiens, UniProt P41743).
T2 sequence (P41743 1-596): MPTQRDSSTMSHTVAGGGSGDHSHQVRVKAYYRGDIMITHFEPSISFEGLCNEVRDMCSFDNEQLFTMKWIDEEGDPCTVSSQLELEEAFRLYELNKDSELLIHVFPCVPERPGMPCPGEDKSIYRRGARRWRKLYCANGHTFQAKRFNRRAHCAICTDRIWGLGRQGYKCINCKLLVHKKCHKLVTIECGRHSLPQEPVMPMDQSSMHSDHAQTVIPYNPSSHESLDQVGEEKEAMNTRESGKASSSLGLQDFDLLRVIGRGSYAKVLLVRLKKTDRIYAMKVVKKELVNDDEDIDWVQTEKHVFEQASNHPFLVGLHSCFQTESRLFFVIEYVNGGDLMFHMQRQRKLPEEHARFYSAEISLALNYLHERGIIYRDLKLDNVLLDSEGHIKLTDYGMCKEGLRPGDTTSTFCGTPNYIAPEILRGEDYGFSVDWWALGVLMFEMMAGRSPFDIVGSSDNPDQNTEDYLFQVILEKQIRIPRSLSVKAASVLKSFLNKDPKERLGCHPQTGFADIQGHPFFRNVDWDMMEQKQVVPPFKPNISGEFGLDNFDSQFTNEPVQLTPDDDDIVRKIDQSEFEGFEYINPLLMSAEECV
Conditions: cited from earlier work.

Data set [1] is described as follows: serum insulin levels / hyperinsulinemia in insulin-resistant mice. The format is in vivo, mouse. Conditions: Het-MλKO mice.
Excerpt: as §1, §4

Data set [2] relates to Akt. Description: Akt activity in LA1-5s neuroblastoma cells. It is filed as cell-based, human. Conditions: LA1-5s cells, 200 nM insulin. How it is done: Relative bar values in panel a are mean±SEM of 6 determinations. Asterisks: *, P<0.05; **, P<0.01; ***, P<0.001 (ANOVA). Values in panel b are means of 2-4 determinations.
Shown here are Mean±SEM (N=4) values relative to the mean initial basal or insulin-stimulated level of indicated immunoreactive protein/peptide. Asterisks: *, P<0.05; **, P<0.01; ***, P<0.001 (ANOVA).
as §3

Data set [3] can be described thus: passage of the blood brain barrier. Conditions: intact mice, inferred from inhibition of brain PKC-λ/ι. The format is in vivo, mouse.
Data set [4] deals with Akt. Description: brain Akt phosphorylation/activity in mice. It is filed as in vivo, mouse.
Excerpt: as §1, §2, §3, §4

Setting [5] is: Het-MλKO mice, s.c. once daily for 8 days (ICAPP 0.4 mg/kg, ATM 60 mg/kg).
Where [6] appears, read: Het-MλKO mice, s.c. once daily for 8 days (ICAPP 0.4 mg/kg, ATM 60 mg/kg), insulin 1 U/kg i.p. 15 min.
Where [7] appears, read: normal mice, single s.c. dose of ICAPP 1.5 mg/kg, insulin 1 U/kg i.p. 15 min before killing.

Entries after “also recorded” stand apart in the source; their conditions may differ.

As to `NC(=O)c1ncn([C@@H]2C[C@H](COP(=O)(O)O)[C@@H](O)[C@H]2O)c1N` [ICAPP], the “resting/basal brain aPKC (PKC-λ/ι) activity” value at 70 kDa PKC-λ/ι (setting [5]) was “diminished; also recorded: reductions of resting/basal activities of brain Akt and aPKC, comparable to those seen with ATM treatment”. Further, the “acute insulin activation of brain aPKC (PKC-λ/ι)” value on 70 kDa PKC-λ/ι (setting [6]) is “blocked the ability of insulin to activate PKC-λ/ι; also recorded: abrogated”. For the same compound, the “insulin-dependent brain PKC-λ/ι (aPKC) activity” value on 70 kDa PKC-λ/ι (setting [7]) was “time-related, well-correlated decreases; also recorded: blocked acute effects of insulin”. Moreover, the “inhibition of recombinant PKC-ι” value at recombinant PKC-ι was “preferentially inhibit recombinant PKC-ι”. The IC50 at recombinant PKC-ι (previously seen, stated as similar, read-out: IC50, inhibition of recombinant PKC-λ/ι) is 1 to 10 nM. For the same compound, in data set [1], the hyperinsulinemia entry was “hyperinsulinemia was corrected; also recorded: fully reversed”. Further, in the data set with Akt [2], the “effect on stimulatory effects of insulin on Akt activity” value was “without altering”. Also, the “passage of the blood brain barrier (BBB)” value in data set [3] is given as “can cross the BBB”. For the same compound, the “resting/basal brain Akt activity” value in the data set with Akt [4] (setting [5]) was “diminished; also recorded: reductions of resting/basal activities of brain Akt and aPKC, comparable to those seen with ATM treatment”. In the data set on Akt [4] (setting [6]), the “acute insulin activation of brain Akt” value is recorded as “restored ability of insulin to acutely activate Akt; also recorded: insulin was fully able to fully activate Akt”. The “insulin-stimulated increases in brain Akt activity” value in the data set on Akt [4] (setting [7]) is “without altering; also recorded: without inhibiting insulin effects on Akt”.

Values taken from US11865125B2, “APKC inhibitors and methods of treating a neurodegenerative disease or disorder” (UNIVERSITY OF SOUTH FLORIDA, priority 2016, dated 2024).
